This note sets out measurements from ChEMBL document CHEMBL3779770, “Synthesis, biological evaluation and molecular docking study of some novel indole and pyridine based 1,3,4-oxadiazole derivatives as potential antitubercular agents” (Bioorg Med Chem Lett, 2016).

In brackets after ≈: the same amount, converted by molar mass.

For test [1], the system named is Mycobacterium tuberculosis variant bovis BCG. Description: Antitubercular activity against active state Mycobacterium bovis BCG ATCC 35734 assessed as viable cells after 8 days by nitrate reductase assay. In kind it is functional, organism-based. To be noted: ATCC 35734, 192 h.
For test [2] the test system is unchanged. Nature of the test: Antitubercular activity against dormant state Mycobacterium bovis BCG ATCC 35734 assessed as viable cells after 12 days by nitrate reductase assay. In kind it is functional, organism-based. The note with it: ATCC 35734, 288 h.

`O=C(/C=C\c1cccc(O)c1)N1N=C(c2ccncc2)OC1c1c[nH]c2ccccc12` (stereo not drawn): the IC50 in test [1] and in test [2] was > 30 µg/mL each time. Also, the MIC in test [1] and in test [2] was > 30 µg/mL in each case.

With `O=C(/C=C\c1ccc(O)cc1)N1N=C(c2ccncc2)OC1c1c[nH]c2ccccc12` (stereo not drawn), the 50% inhibitory concentration (IC50) (commonly the point on the concentration scale where inhibition reaches its midpoint) was found to be 28.8 µg/mL (≈ 70.2 µM) in test [1] and 27.9 µg/mL (≈ 68 µM) in test [2]. Besides, the MIC in test [1] and in test [2] was > 30 µg/mL throughout.

`COc1ccc(/C=C\C(=O)N2N=C(c3ccncc3)OC2c2c[nH]c3ccccc23)cc1` (stereo not drawn): the IC50 in test [1] and in test [2] was > 30 µg/mL throughout. Moreover, the MIC in test [1] and in test [2] was > 30 µg/mL in each case.

Consider `O=C(/C=C\c1ccccc1Cl)N1N=C(c2ccncc2)OC1c1c[nH]c2ccccc12` (stereo not drawn), for which, in test [1], the half-maximal inhibitory concentration (IC50) was > 30 µg/mL and the MIC (usually the smallest concentration in the dilution series that meets the test's criterion for growth inhibition) is > 30 µg/mL. In test [2], the IC50 is > 30 µg/mL and the MIC was > 30 µg/mL.

Consider `O=C(/C=C\c1ccc(F)cc1)N1N=C(c2ccncc2)OC1c1c[nH]c2ccccc12` (stereo not drawn), for which the IC50 in test [1] and in test [2] was > 30 µg/mL each time. Moreover, the MIC in test [1] and in test [2] was > 30 µg/mL throughout.

As to `O=C(/C=C\c1cccc([N+](=O)[O-])c1)N1N=C(c2ccncc2)OC1c1c[nH]c2ccccc12` (stereo not drawn), the IC50 in test [1] and in test [2] was > 30 µg/mL each time. Further, the MIC in test [1] and in test [2] was > 30 µg/mL throughout.

Turning to `O=C(/C=C\c1cccc(Br)c1)N1N=C(c2ccncc2)OC1c1c[nH]c2ccccc12` (stereo not drawn), in test [1], the IC50 is > 30 µg/mL and the MIC is > 30 µg/mL. For the same compound, in test [2], the 50% inhibitory concentration (IC50) was determined as 21.7 µg/mL (≈ 45.9 µM) and the MIC was > 30 µg/mL.

In the case of `O=C(/C=C/c1c(Cl)cccc1Cl)N1N=C(c2ccncc2)OC1c1c[nH]c2ccccc12` (stereo not drawn), in test [1], the IC50 was > 30 µg/mL and the MIC was > 30 µg/mL. In test [2], the half-maximal inhibitory concentration (IC50) turned out to be 19.2 µg/mL (≈ 41.5 µM) and the MIC is > 30 µg/mL.

For `Cc1ccc(/C=C\C(=O)N2N=C(c3ccncc3)OC2c2c[nH]c3ccccc23)cc1` (stereo not drawn), in test [1], the half-inhibitory concentration (IC50) was > 30 µg/mL and the minimal inhibitory concentration (MIC) is > 30 µg/mL. In addition, in test [2], the IC50 is > 30 µg/mL and the minimum inhibitory concentration (MIC) is > 30 µg/mL.

`O=C(/C=C\c1ccc([N+](=O)[O-])cc1)N1N=C(c2ccncc2)OC1c1c[nH]c2ccccc12` (stereo not drawn): the half-maximal inhibitory concentration (IC50) in test [1] is 1.42 µg/mL (≈ 3.23 µM); in test [2] it was 1.37 µg/mL (≈ 3.12 µM). Moreover, the MIC in test [1] worked out at 2.5 µg/mL (≈ 5.69 µM); in test [2], 2.37 µg/mL (≈ 5.39 µM).

Turning to `O=C(/C=C\c1cccc(Cl)c1Cl)N1N=C(c2ccncc2)OC1c1c[nH]c2ccccc12` (stereo not drawn), in test [1], the IC50 was > 30 µg/mL and the MIC was > 30 µg/mL. For the same compound, in test [2], the IC50 is > 30 µg/mL and the MIC was > 30 µg/mL.

As to `O=C(/C=C\c1ccccc1O)N1N=C(c2ccncc2)OC1c1c[nH]c2ccccc12` (stereo not drawn), the IC50 was determined as 0.46 µg/mL (≈ 1.12 µM) in test [1] and 0.68 µg/mL (≈ 1.66 µM) in test [2]. Also, the MIC came to 0.94 µg/mL (≈ 2.29 µM) in test [1] and 1.19 µg/mL (≈ 2.9 µM) in test [2].

For the compound `O=C(/C=C\c1ccccc1)N1N=C(c2ccncc2)OC1c1c[nH]c2ccccc12` (stereo not drawn), the IC50 in test [1] stood at 12.3 µg/mL (≈ 31.3 µM); in test [2] it was 11.2 µg/mL (≈ 28.5 µM). The MIC in test [1] and in test [2] was > 30 µg/mL throughout.

With `O=C(/C=C\c1ccc(Cl)cc1)N1N=C(c2ccncc2)OC1c1c[nH]c2ccccc12` (stereo not drawn), in test [1], the IC50 was > 30 µg/mL and the MIC is > 30 µg/mL. In test [2], the half-inhibitory concentration (IC50) is > 30 µg/mL and the MIC is > 30 µg/mL.

`O=C(/C=C\c1ccccc1F)N1N=C(c2ccncc2)OC1c1c[nH]c2ccccc12` (stereo not drawn): in test [1], the IC50 was > 30 µg/mL and the minimum inhibitory concentration (MIC) was > 30 µg/mL. Besides, in test [2], the IC50 is > 30 µg/mL and the minimal inhibitory concentration (MIC) was > 30 µg/mL.

As for `O=C(/C=C\c1ccc(Br)cc1)N1N=C(c2ccncc2)OC1c1c[nH]c2ccccc12` (stereo not drawn), in test [1], the IC50 was > 30 µg/mL and the MIC was > 30 µg/mL. Besides, in test [2], the IC50 is > 30 µg/mL and the MIC is > 30 µg/mL.

Take `O=C(/C=C\c1ccc(Cl)cc1Cl)N1N=C(c2ccncc2)OC1c1c[nH]c2ccccc12` (stereo not drawn): in test [1], the IC50 amounted to 2.93 µg/mL (≈ 6.32 µM) and the MIC was 5.17 µg/mL (≈ 11.2 µM). In test [2], the concentration for half-maximal inhibition (IC50) is 1.5 µg/mL (≈ 3.24 µM) and the MIC came to 4.97 µg/mL (≈ 10.7 µM).

As for `O=C(/C=C\c1cccc(F)c1)N1N=C(c2ccncc2)OC1c1c[nH]c2ccccc12` (stereo not drawn), the half-maximal inhibitory concentration (IC50) stood at 19.5 µg/mL (≈ 47.4 µM) in test [1] and 20.4 µg/mL (≈ 49.5 µM) in test [2]. The MIC in test [1] and in test [2] was > 30 µg/mL in each case.

Turning to `O=C(/C=C\c1cccc(Cl)c1)N1N=C(c2ccncc2)OC1c1c[nH]c2ccccc12` (stereo not drawn), the IC50 in test [1] and in test [2] was > 30 µg/mL throughout. Moreover, the MIC in test [1] and in test [2] was > 30 µg/mL in each case.

With `O=C(/C=C\c1ccccc1[N+](=O)[O-])N1N=C(c2ccncc2)OC1c1c[nH]c2ccccc12` (stereo not drawn), in test [1], the half-inhibitory concentration (IC50) worked out at 0.48 µg/mL (≈ 1.09 µM) and the MIC stood at 1.03 µg/mL (≈ 2.34 µM). In test [2], the IC50 stood at 0.36 µg/mL (≈ 0.819 µM) and the minimal inhibitory concentration (MIC) came to 0.85 µg/mL (≈ 1.93 µM).

For the compound `NNC(=O)c1ccncc1` [ISONIAZID], in test [1], the IC50 worked out at 0.0012 µg/mL (≈ 0.00875 µM) and the MIC stood at 0.033 µg/mL (≈ 0.241 µM). Moreover, in test [2], the IC50 is 0.0017 µg/mL (≈ 0.0124 µM) and the MIC worked out at 0.037 µg/mL (≈ 0.27 µM).

With `CO[C@H]1/C=C/O[C@@]2(C)Oc3c(C)c(O)c4c(O)c(c(/C=N/N5CCN(C)CC5)c(O)c4c3C2=O)NC(=O)/C(C)=C\C=C\[C@H](C)[C@H](O)[C@@H](C)[C@@H](O)[C@@H](C)[C@H](OC(C)=O)[C@@H]1C` [RIFAMPIN], in test [1], the half-inhibitory concentration (IC50) was 0.0012 µg/mL (≈ 0.00146 µM) and the minimal inhibitory concentration (MIC) came out at 0.015 µg/mL (≈ 0.0182 µM). Moreover, in test [2], the IC50 worked out at 0.0015 µg/mL (≈ 0.00182 µM) and the MIC amounted to 0.017 µg/mL (≈ 0.0207 µM).
